The text below walks through data of US8048892B2, “Azaquinolone based compounds exhibiting prolyl hydroxylase inhibitory activity, compositions, and uses thereof” (Amgen Inc., priority 2006, dated 2011).

Where only a bound is given, the exact number is not on record here.

HIF PHD2, sequence (Q9GZT9 whole entry): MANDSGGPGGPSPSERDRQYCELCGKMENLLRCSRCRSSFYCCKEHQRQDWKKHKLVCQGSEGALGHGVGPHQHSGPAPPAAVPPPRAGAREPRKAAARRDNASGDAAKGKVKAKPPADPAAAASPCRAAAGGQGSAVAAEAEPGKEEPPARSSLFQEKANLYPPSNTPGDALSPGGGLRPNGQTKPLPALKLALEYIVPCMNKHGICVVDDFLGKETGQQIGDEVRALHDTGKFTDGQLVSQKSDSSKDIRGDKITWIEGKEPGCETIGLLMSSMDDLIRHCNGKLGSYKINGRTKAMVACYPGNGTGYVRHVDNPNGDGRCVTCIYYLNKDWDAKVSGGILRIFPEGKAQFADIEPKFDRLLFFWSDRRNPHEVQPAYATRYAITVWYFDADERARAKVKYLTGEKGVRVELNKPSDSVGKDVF

The target in the experiment is HIF PHD2 (Homo sapiens, UniProt Q9GZT9). The experiment in a line: PHD2 inhibition assay (TR-FRET, VCB-Eu detection of hydroxylated P564-HIF1α peptide). The experiment is classed as biochemical. The settings on record: 2 nM PHD2, 100 nM P564-HIF1α peptide, 0.25 μM 2-oxoglutarate. As for the experimental part:
Inhibition of HIF PHD2 activity was quantified utilizing the TR-FRET technology. HIF PHD2 catalyzes a hydroxyl modification on the proline residue of the P564-HIF1α peptide substrate (Biotin-DLEMLAPYIPMDDDFQL (SEQ ID NO: 7)) resulting in recognition and binding of the europylated Von Hippel-Lindau protein (pVHL), elongin B and elongin C heterotrimeric (VCB-Eu) complex.
The PHD2 inhibition assay was executed by addition of freshly dissolved FeCl2 to 178.57 μM (100 μM final concentration) in PHD2 Reaction Buffer containing 30 mM MES, pH 6, 10 mM NaCl, 0.25% Brij-35, 0.01% BSA, and 1% DMSO. 28 μL of the iron solution and 2 μL of inhibitor compounds serially diluted in 100% DMSO (5% DMSO final) were added to black polypropylene 96-well microtiter plates. To that, 10 μL of 10 nM PHD2 (2 nM final) was added to all wells of the plate except for the 8 wells of column 12 (LO control), and allowed to incubate at room temperature on the shaker for one hour. Column 6 was the HI control containing PHD2 enzyme and 5% DMSO vehicle, but no inhibitor compound. To initiate the PHD2 enzymatic reaction, 10 μL of a solution containing 500 nM P564-HIF1α peptide (100 nM final), 10 mM ascorbic acid (2 mM final), and 1.25 μM 2-oxoglutarate (α-ketoglutarate; 0.25 μM final) in PHD2 Reaction Buffer was added to all wells of the plate and allowed to incubate on the shaker at room temperature for one hour.
The reaction was terminated by addition of 25 μL TR-FRET Buffer (50 mM TRIS-HCl, pH 9, 100 mM NaCl, 0.05% BSA, and 0.5% Tween-20) containing 150 mM succinate (product inhibitor; 50 mM final), 75 nM streptavidin-APC (25 nM final), and 7.5 nM VCB-Eu (2.5 nM final). The TR-FRET detection reagents were placed on a shaker for 1 hour to reach binding equilibrium before reading on the Discovery platform (PerkinElmer). Europium is excited at 315 nm and phosphoresces at 615 nm with a large Stoke's shift. APC, in turn, emits at 655 nm upon excitation at 615 nm. The TR-FRET signal is measured as the ratio of the APC 655 nm signal divided by the internal europium reference 615 nm emission signal.
The POC (percentage of control) was determined by comparing the signal from hydroxylated peptide substrate in the enzyme reaction containing inhibitor compound with that from PHD2 enzyme with DMSO vehicle alone (HI control), and no enzyme (LO control). POC was calculated using the formula: % control (POC)=(cpd−average LO)/(average HI−average LO)*100. Data (consisting of POC and inhibitor concentration in μM) was fitted to a 4-parameter equation (y=A+((B−A)/(1+((x/C)^D))), where A is the minimum y (POC) value, B is the maximum y (POC), C is the x (cpd concentration) at the point of inflection and D is the slope factor) using a Levenburg-Marquardt non-linear regression algorithm.
A general note: In TR-FRET formats the signal depends on donor and acceptor labels being close together.
For the compound `Cn1c(=O)c(C(=O)NCC(=O)O)c(O)c2ccc(-c3cccs3)nc21` [Example 14, N-((4-Hydroxy-1-methyl-2-oxo-7-(2-thienyl)-1,2-dihydro-1,8-naphthyridin-3-yl)carbonyl)glycine], the half-maximal inhibitory concentration (IC50) – broadly, the midpoint of a concentration-inhibition curve – was less than 50 nM. For the compound `Cc1ccc(-c2ccc3c(O)c(C(=O)NCC(=O)O)c(=O)n(C)c3n2)cc1` [Example 15, N-((4-Hydroxy-1-methyl-7-(4-methylphenyl)-2-oxo-1,2-dihydro-1,8-naphthyridin-3-yl)carbonyl)glycine], the IC50 fell in the range of 100 to 500 nM. Compound `COc1ccc(-c2ccc3c(O)c(C(=O)NCC(=O)O)c(=O)n(C)c3n2)cc1` [Example 16, N-((4-Hydroxy-1-methyl-7-(4-(methyloxy)phenyl)-2-oxo-1,2-dihydro-1,8-naphthyridin-3-yl)carbonyl)glycine] returned a half-maximal inhibitory concentration (IC50) of 50 to 100 nM. Compound `Cn1c(=O)c(C(=O)NCC(=O)O)c(O)c2ccc(-c3cccnc3)nc21` [Example 17, N-((4-Hydroxy-1-methyl-2-oxo-7-(3-pyridinyl)-1,2-dihydro-1,8-naphthyridin-3-yl)carbonyl)glycine] gave an IC50 of less than 50 nM. The same measure for `Cn1c(=O)c(C(=O)NCC(=O)O)c(O)c2ccc(C3CCCCC3)nc21` [Example 18, 2-(7-Cyclohexyl-4-hydroxy-1-methyl-2-oxo-1,2-dihydro-1,8-naphthyridine-3-carboxamido)acetic acid]: 100 to 500 nM.

`Cn1c(=O)c(C(=O)NCC(=O)O)c(O)c2ccc(C#C[Si](C)(C)C)nc21` [Example 19, 2-(4-Hydroxy-1-methyl-2-oxo-7-(2-(trimethylsilyl)ethynyl)-1,2-dihydro-1,8-naphthyridine-3-carboxamido)acetic acid]: the half-inhibitory concentration (IC50) was in the range of 50 to 100 nM. The same measure for `C#Cc1ccc2c(O)c(C(=O)NCC(=O)O)c(=O)n(C)c2n1` [Example 20, 2-(7-Ethynyl-4-hydroxy-1-methyl-2-oxo-1,2-dihydro-1,8-naphthyridine-3-carboxamido)acetic acid]: less than 50 nM; for `Cn1c(=O)c(C(=O)NCC(=O)O)c(O)c2ccc(C#CC3CC3)nc21` [Example 21, 2-(7-(2-Cyclopropylethynyl)-4-hydroxy-1-methyl-2-oxo-1,2-dihydro-1,8-naphthyridine-3-carboxamido)acetic acid]: less than 50 nM; for `Cn1c(=O)c(C(=O)NCC(=O)O)c(O)c2ccc(N3CCCCC3)nc21` [Example 22, 2-(4-Hydroxy-1-methyl-2-oxo-7-(piperidin-1-yl)-1,2-dihydro-1,8-naphthyridine-3-carboxamido)acetic acid]: 50 to 100 nM. In turn, `Cn1c(=O)c(C(=O)NCC(=O)O)c(O)c2ccc(N3CCOCC3)nc21` [Example 23, 2-(4-Hydroxy-1-methyl-7-morpholino-2-oxo-1,2-dihydro-1,8-naphthyridine-3-carboxamido)acetic acid] yielded a 50% inhibitory concentration (IC50) of 100 to 500 nM. The compound `Cn1c(=O)c(C(=O)NCC(=O)O)c(O)c2ccc(N3CCC(C(F)(F)F)CC3)nc21` [Example 24, 2-(4-Hydroxy-1-methyl-2-oxo-7-(4-(trifluoromethyl)piperidin-1-yl)-1,2-dihydro-1,8-naphthyridine-3-carboxamido)acetic acid] gave a 50% inhibitory concentration (IC50) of 500 to 1000 nM. Next, `COc1ccc2c(O)c(C(=O)NCC(=O)O)c(=O)n(C)c2n1` [Example 25, 2-(4-Hydroxy-7-methoxy-1-methyl-2-oxo-1,2-dihydro-1,8-naphthyridine-3-carboxamido)acetic acid]: less than 50 nM; `Cn1c(=O)c(C(=O)NCC(=O)O)c(O)c2cc(C3=CCOCC3)cnc21` [Example 26, 2-(6-(3,6-Dihydro-2 H-pyran-4-yl)-4-hydroxy-1-methyl-2-oxo-1,2-dihydro-1,8-naphthyridine-3-carboxamido)acetic acid]: 50 to 100 nM; `Cc1ccnc(-c2cnc3c(c2)c(O)c(C(=O)NCC(=O)O)c(=O)n3C)n1` [Example 27, 2-(4-Hydroxy-1-methyl-6-(4-methylpyrimidin-2-yl)-2-oxo-1,2-dihydro-1,8-naphthyridine-3-carboxamido)acetic acid]: less than 50 nM. Next, `Cn1c(=O)c(C(=O)NCC(=O)O)c(O)c2cc(-c3nccc(C(F)(F)F)n3)cnc21` [Example 28]: less than 50 nM. Next, `COc1ccnc(-c2cnc3c(c2)c(O)c(C(=O)NCC(=O)O)c(=O)n3C)n1` [Example 29, 2-(4-Hydroxy-6-(4-methoxypyrimidin-2-yl)-1-methyl-2-oxo-1,2-dihydro-1,8-naphthyridine-3-carboxamido)acetic acid]: less than 50 nM; `Cc1cc(C)nc(-c2cnc3c(c2)c(O)c(C(=O)NCC(=O)O)c(=O)n3C)n1` [Example 30, 2-(6-(4,6-Dimethylpyrimidin-2-yl)-4-hydroxy-1-methyl-2-oxo-1,2-dihydro-1,8-naphthyridine-3-carboxamido)acetic acid]: 50 to 100 nM. As to `Cn1c(=O)c(C(=O)NCC(=O)O)c(O)c2cc(-c3cc(Cl)ncn3)cnc21` [Example 31, 2-(6-(6-Chloropyrimidin-4-yl)-4-hydroxy-1-methyl-2-oxo-1,2-dihydro-1,8-naphthyridine-3-carboxamido)acetic acid], the half-maximal inhibitory concentration (IC50) was less than 50 nM.

The compound `Cn1c(=O)c(C(=O)NCC(=O)O)c(O)c2cc(-c3cccc(C(F)(F)F)n3)cnc21` [Example 32, N-((4-Hydroxy-1-methyl-2-oxo-6-(6-(trifluoromethyl)-2-pyridinyl)-1,2-dihydro-1,8-naphthyridin-3-yl)carbonyl)glycine] gave an IC50 of 50 to 100 nM. Next, `CN(C)c1ccccc1-c1cnc2c(c1)c(O)c(C(=O)NCC(=O)O)c(=O)n2C` [Example 33, 2-(6-(2-(Dimethylamino)phenyl)-4-hydroxy-1-methyl-2-oxo-1,2-dihydro-1,8-naphthyridine-3-carboxamido)acetic acid]: 50 to 100 nM. Next, `Cn1c(=O)c(C(=O)NCC(=O)O)c(O)c2cc(C3CCOCC3)cnc21` [Example 34, 2-(4-Hydroxy-1-methyl-2-oxo-6-(tetrahydro-2 H-pyran-4-yl)-1,2-dihydro-1,8-naphthyridine-3-carboxamido)acetic acid]: less than 50 nM; `Cc1ccccc1-c1cnc2c(c1)c(O)c(C(=O)NCC(=O)O)c(=O)n2C` [Example 35, N-((4-Hydroxy-1-methyl-6-(2-methylphenyl)-2-oxo-1,2-dihydro-1,8-naphthyridin-3-yl)carbonyl)glycine]: 50 to 100 nM. Next, `CC(C)Oc1ccccc1-c1cnc2c(c1)c(O)c(C(=O)NCC(=O)O)c(=O)n2C` [Example 36, N-((4-Hydroxy-1-methyl-6-(2-((1-methylethyl)oxy)phenyl)-2-oxo-1,2-dihydro-1,8-naphthyridin-3-yl)carbonyl)glycine]: 100 to 500 nM.

On to `CC(C)Oc1ccc(-c2cnc3c(c2)c(O)c(C(=O)NCC(=O)O)c(=O)n3C)cc1` [Example 37, N-((4-Hydroxy-1-methyl-6-(4-((1-methylethyl)oxy)phenyl)-2-oxo-1,2-dihydro-1,8-naphthyridin-3-yl)carbonyl)glycine], for which the IC50 lay in the range of 100 to 500 nM. For the compound `CC(C)Oc1cccc(-c2cnc3c(c2)c(O)c(C(=O)NCC(=O)O)c(=O)n3C)c1` [Example 38, N-((4-Hydroxy-1-methyl-6-(3-((1-methylethyl)oxy)phenyl)-2-oxo-1,2-dihydro-1,8-naphthyridin-3-yl)carbonyl)glycine], the IC50 lay within 100 to 500 nM. Consider `Cn1c(=O)c(C(=O)NCC(=O)O)c(O)c2cc(-c3ccc4c(c3)CCO4)cnc21` [Example 39, N-((6-(2,3-Dihydro-1-benzofuran-5-yl)-4-hydroxy-1-methyl-2-oxo-1,2-dihydro-1,8-naphthyridin-3-yl)carbonyl)glycine], for which the IC50 lay within 50 to 100 nM.

In turn, `Cc1cccc(C)c1-c1cnc2c(c1)c(O)c(C(=O)NCC(=O)O)c(=O)n2C` [Example 40, N-((6-(2,6-Dimethylphenyl)-4-hydroxy-1-methyl-2-oxo-1,2-dihydro-1,8-naphthyridin-3-yl)carbonyl)glycine] displayed an IC50 of 100 to 500 nM.

Compound `Cn1c(=O)c(C(=O)NCC(=O)O)c(O)c2cc(-c3ccccc3C(N)=O)cnc21` [Example 41, N-((6-(2-(Aminocarbonyl)phenyl)-4-hydroxy-1-methyl-2-oxo-1,2-dihydro-1,8-naphthyridin-3-yl)carbonyl)glycine] displayed a half-inhibitory concentration (IC50) of 50 to 100 nM.
